Our source for the MIC values is ChEMBL document CHEMBL3045554, “Synthesis and antimicrobial screening of N-(1-methyl-1H-pyrazole-4-carbonyl)-thiourea derivatives” (2012).

Holding throughout (format): functional
One assay concerns Pseudomonas aeruginosa. The assay is described as follows: Antimicrobial activity against Pseudomonas aeruginosa 5541 by microdilution method. (In general: Broth dilution looks for growth in wells or tubes with falling amounts of substance.)
The test system of a further assay is Bacillus subtilis. The assay can be described thus: Antimicrobial activity against Bacillus subtilis 10.10.2006 by microdilution method.
In a further assay the test system is Staphylococcus aureus. The assay is described as follows: Antimicrobial activity against Staphylococcus aureus by microdilution method.
Another assay deals with Klebsiella pneumoniae. The assay can be described thus: Antimicrobial activity against Klebsiella pneumoniae 126/2007 by microdilution method.
For the next assay, the system named is Escherichia coli. The assay can be described thus: Antimicrobial activity against Escherichia coli 637/2007 by microdilution method.
In another assay the test system is Enterococcus faecalis. The assay is described as follows: Antimicrobial activity against Enterococcus faecalis 13773 by microdilution method.
For a further assay, the system named is Acinetobacter baumannii. The assay is described as follows: Antimicrobial activity against Acinetobacter baumannii 15896 by microdilution method.

In general, MIC refers to the lowest concentration found to suppress growth.

In brackets after ≈: the same amount, converted by molar mass.

`CCCc1ccc(NC(=S)NC(=O)c2cnn(C)c2)cc1`: the MIC against Pseudomonas aeruginosa, in the assay on Bacillus subtilis, against Staphylococcus aureus, against Klebsiella pneumoniae, in the assay with Escherichia coli and with Enterococcus faecalis was over 1000 µg/mL in each case. The same compound displayed an MIC in the assay on Acinetobacter baumannii of over 1000 µg/mL.
Regarding `CCC(C)c1ccccc1NC(=S)NC(=O)c1cnn(C)c1` (configuration not stated), the MIC against Pseudomonas aeruginosa, against Bacillus subtilis, against Staphylococcus aureus, with Klebsiella pneumoniae, in the assay with Escherichia coli and against Enterococcus faecalis was over 1000 µg/mL each time. In the assay with Acinetobacter baumannii, this compound had an MIC of over 1000 µg/mL.
On to `Cc1ccc(NC(=S)NC(=O)c2cnn(C)c2)cc1`, for which the MIC against Pseudomonas aeruginosa, in the assay on Bacillus subtilis, with Staphylococcus aureus, against Klebsiella pneumoniae, against Escherichia coli and with Enterococcus faecalis was over 1000 µg/mL in each case. This compound displayed a minimal inhibitory concentration (MIC) in the assay on Acinetobacter baumannii of over 1000 µg/mL.
For `CCc1ccc(NC(=S)NC(=O)c2cnn(C)c2)cc1`, the MIC with Pseudomonas aeruginosa, against Bacillus subtilis, in the assay with Staphylococcus aureus, with Klebsiella pneumoniae, in the assay with Escherichia coli and in the assay with Enterococcus faecalis was over 1000 µg/mL each time. Also, in the assay on Acinetobacter baumannii, the MIC was over 1000 µg/mL.
As for `CCC(C)c1ccc(NC(=S)NC(=O)c2cnn(C)c2)cc1` (configuration not stated), the minimal inhibitory concentration (MIC) against Pseudomonas aeruginosa, against Bacillus subtilis, against Staphylococcus aureus, in the assay with Klebsiella pneumoniae, in the assay with Escherichia coli and in the assay on Enterococcus faecalis was over 1000 µg/mL throughout. In the assay on Acinetobacter baumannii, this compound showed an MIC of over 1000 µg/mL.
Regarding `CC(C)c1ccccc1NC(=S)NC(=O)c1cnn(C)c1`, the MIC against Pseudomonas aeruginosa was over 1000 µg/mL; with Bacillus subtilis, over 1000 µg/mL; in the assay on Staphylococcus aureus, over 1000 µg/mL; with Klebsiella pneumoniae it was 1000 µg/mL (≈ 3.31 mM); with Escherichia coli, over 1000 µg/mL; in the assay on Enterococcus faecalis, over 1000 µg/mL. Besides, the MIC against Acinetobacter baumannii was over 1000 µg/mL.
